Assays:
[1] = system: rabbit ear vein; assay: Embolic effect in rabbit ear vein; assay type: in vivo, rabbits; details: 0.1 mL injected, after one-month recovery, India ink
Procedure: Sixty healthy male rabbits with body weight of 2.5±0.2 kg were selected and divided into 6 groups of 10. The rabbits were anesthetized with a 3% sodium pentobarbital solution by intraperitoneal injection at 0.8 mL/kg. An anticoagulated and disinfected PE-8 catheter (0.20 mm×0.36 mm) was inserted into the distal end of the ear vein, until the end of the catheter reached the midpoint of the ear vein. The in-vitro end of the catheter was connected with a 1-mL syringe through a cannula.
0.1 mL of each of the sclerosing agents of various embodiments with different components was injected at a constant speed through the PE-8 catheter. After 30 seconds, the catheter was slowly and gently withdrawn, and a cotton pad was used for hemostasis. Both left and right ears of the animals were treated with the same procedures. The animals after sclerosing treatment were accommodate in individual cages. After a one-month recovery period, after visual inspection, a normal saline containing India ink was slowly injected at the distal end of the ear vein, so as to observe and record whether the blood vessels were completely embolized. The embolization ratio in each group was recorded (Table 2).

[2] = Viscosity test by capillary viscometer; assay type: physicochemical; details: 20° C.
Procedure: The viscosity of Examples 1, 5 and 7 and ethanol was measured by a capillary viscometer at an ambient temperature of 20° C. The capillary diameter was 0.5-0.6 mm and the viscometer constant was 0.005085 mm^2/s^2. The time difference of liquid passing through the capillary was recorded.
Viscosity=time difference×viscometer constant

CCO [Ethanol, ethanol]
Ratio of completely embolized vessels [1]: 60% (12/20) | Time difference ([2]; capillary diameter 0.5-0.6 mm): 245 s | Viscosity ([2]; viscometer constant 0.005085 mm^2/s^2): 1.25 mm^2/s
